Experimental data as given in US5185320A, “O^56 -alkyl derivatives of aglycone and pseudo aglycones of teicoplanin” (Gruppo Lepetit S.p.A., priority 1989, dated 1993).

Assays:
Assay type in all cases: cell-based
Settings in all cases: inoculum about 10^4 CFU/ml, 18-24 h at 37° C.
[1] = system: Staph. aureus Tour L 165; assay: MIC, standard dilution test, Staph. aureus Tour L 165
Experimental: (§1) ISOSENSITEST broth (Oxoid) and TOLLD-HEWITT broth (Difco) are used for growing staphylococci and streptococci, respectively. Broth cultures are diluted so that the final inoculum is about 10^4 colony forming units/ml (CFU/ml).

[2] = system: Staph. haemolyticus L 602; assay: MIC, standard dilution test, Staph. haemolyticus L 602
Experimental: as §1

[3] = system: Staph. epidermidis ATCC 12228; assay: MIC, standard dilution test, Staph. epidermidis ATCC 12228
Experimental: as §1

[4] = system: Strep. pyogenes C 203; assay: MIC, standard dilution test, Strep. pyogenes C 203
Experimental: as §1

[5] = system: Strep. pneumoniae UC41; assay: MIC, standard dilution test, Strep. pneumoniae UC41
Experimental: as §1

[6] = system: Strep. faecalis ATCC 7080; assay: MIC, standard dilution test, Strep. faecalis ATCC 7080
Experimental: as §1

[7] = system: Strep. mitis L 796; assay: MIC, standard dilution test, Strep. mitis L 796
Experimental: as §1

[8] = system: Neisseria gonorrhoeae ISM68/126; assay: MIC, standard dilution test, Neisseria gonorrhoeae ISM68/126
Experimental: as §1

[9] = system: Haemophilus influenzae ATCC 19418; assay: MIC, standard dilution test, Haemophilus influenzae ATCC 19418
Experimental: as §1

[10] = system: Escherichia coli SKF 12140; assay: MIC, standard dilution test, Escherichia coli SKF 12140
Experimental: as §1

[11] = system: Proteus vulgaris ATCC 881; assay: MIC, standard dilution test, Proteus vulgaris ATCC 881
Experimental: as §1

[12] = system: Pseudomonas aeruginosa ATCC 10145; assay: MIC, standard dilution test, Pseudomonas aeruginosa ATCC 10145
Experimental: as §1

Compound	Minimal inhibitory concentration (MIC) [1]	Minimal inhibitory concentration (MIC) [2]	Minimal inhibitory concentration (MIC) [3]	Minimal inhibitory concentration (MIC) [4]	Minimal inhibitory concentration (MIC) [5]	Minimal inhibitory concentration (MIC) [6]	Minimal inhibitory concentration (MIC) [7]	Minimal inhibitory concentration (MIC) [8]	Minimal inhibitory concentration (MIC) [9]	Minimal inhibitory concentration (MIC) [10]	Minimal inhibitory concentration (MIC) [11]	Minimal inhibitory concentration (MIC) [12]
NC1C(=O)NC2Cc3ccc(c(Cl)c3)Oc3cc4cc(c3OCc3ccccc3)Oc3ccc(cc3Cl)C(O)C3NC(=O)C(NC(=O)C4NC(=O)C(NC2=O)c2cc(O)cc(c2)Oc2cc1ccc2O)c1ccc(O)c(c1)-c1c(O)cc(O)cc1C(C(=O)OCc1ccccc1)NC3=O (stereo not shown) [Compound 20, O^56 -phenylmethyldeglucoteicoplanin phenylmethyl ester]	0.5	4	0.25	0.125	0.25	0.5	0.125	> 128	> 128	> 128	> 128	> 128
COC(=O)C1NC(=O)C2NC(=O)C(NC(=O)C3NC(=O)C4NC(=O)C(Cc5ccc(c(Cl)c5)Oc5cc3cc(c5OCCCCN)Oc3ccc(cc3Cl)C2O)NC(=O)C(N)c2ccc(O)c(c2)Oc2cc(O)cc4c2)c2ccc(O)c(c2)-c2c(O)cc(O)cc21 (stereo not shown) [Compound 5, O^56-(4-aminobutyl)deglucoteicoplanin methyl ester]	0.125	0.5	0.125	0.063	0.125	0.125	0.125			8	32	32
Cl.NC1C(=O)NC2Cc3ccc(c(Cl)c3)Oc3cc4cc(c3OCCBr)Oc3ccc(cc3Cl)C(O)C3NC(=O)C(NC(=O)C4NC(=O)C(NC2=O)c2cc(O)cc(c2)Oc2cc1ccc2O)c1ccc(O)c(c1)-c1c(O)cc(O)cc1C(C(=O)OCCBr)NC3=O (stereo not shown) [Compound 17, O^56-(2-bromoethyl)deglucoteicoplanin 2-bromoethyl ester hydrochloride salt]	0.25	4	0.125	0.125	0.5	0.125	0.25	> 128	> 128	> 128	> 128	> 128
O^56 -(2-bromoethyl)deglucoteicoplanin phenylmethyl ester [Compound 19]	1	4	0.5	0.25	0.5	4	0.25	> 128	> 128	> 128	> 128	> 128
NC1C(=O)NC2Cc3ccc(c(Cl)c3)Oc3cc4cc(c3OC3CCOC3=O)Oc3ccc(cc3Cl)C(O)C3NC(=O)C(NC(=O)C4NC(=O)C(NC2=O)c2cc(O)cc(c2)Oc2cc1ccc2O)c1ccc(O)c(c1)-c1c(O)cc(O)cc1C(C(=O)OCc1ccccc1)NC3=O (stereo not shown) [Compound 21, O^56-(tetrahydro-2-oxo-3-furanyl)deglucoteicoplanin phenylmethyl ester]	2	4	1	0.125	0.25	2	0.25	> 128	> 128	> 128	> 128	> 128
NC1C(=O)NC2Cc3ccc(c(Cl)c3)Oc3cc4cc(c3OCCO)Oc3ccc(cc3Cl)C(O)C3NC(=O)C(NC(=O)C4NC(=O)C(NC2=O)c2cc(O)cc(c2)Oc2cc1ccc2O)c1ccc(O)c(c1)-c1c(O)cc(O)cc1C(C(=O)OCCO)NC3=O (stereo not shown) [Compound 22, O^56-(2-hydroxyethyl)deglucoteicoplanin 2-hydroxyethyl ester]	0.06	0.5		0.125						32		
COC(=O)CNC(=O)CNCCOc1c2cc3cc1Oc1ccc(cc1Cl)C(O)C1NC(=O)C(NC(=O)C3NC(=O)C3NC(=O)C(Cc4ccc(c(Cl)c4)O2)NC(=O)C(N)c2ccc(O)c(c2)Oc2cc(O)cc3c2)c2ccc(O)c(c2)-c2c(O)cc(O)cc2C(C(=O)OCCBr)NC1=O (stereo not shown) [Compound 18, O^56-[2-[2-[(2-methoxy-2-oxoethyl)amino]-2-oxoethylamino]ethyl]deglucoteicoplanin 2-bromoethyl ester]	0.13	2		0.125						> 128	> 128	> 128
COC(=O)C1NC(=O)C2NC(=O)C(NC(=O)C3NC(=O)C4NC(=O)C(Cc5ccc(c(Cl)c5)Oc5cc3cc(c5OCCCCN(CCN(C)C)CCN(C)C)Oc3ccc(cc3Cl)C2O)NC(=O)C(N)c2ccc(O)c(c2)Oc2cc(O)cc4c2)c2ccc(O)c(c2)-c2c(O)cc(O)cc21 (stereo not shown) [Compound 6, O^56-[4-[bis[2-(dimethylamino)ethyl]amino]butyl]deglucoteicoplanin methyl ester]	0.25	0.5	0.25	0.032	0.25	0.5	0.125	128		16	> 128	> 128
